Tests used:
[1] = target: T1, Protein cereblon/Histone acetyltransferase p300 (Homo sapiens, UniProt Q09472+Q96SW2); experiment: PROTAC activity at p300/CRBN in human VCaP cells assessed as maximal protein degradation at 1 uM incubated for 4 hrs by Western blot analysis relative to control; assay type: cell-based
[2] = Oral plasma exposure in SCID mouse at 5 mg/kg, po measured after 1 hr; assay type: ADME, organism-based; settings: for concentration at 1 h: SCID, plasma
[3] = Oral plasma exposure in SCID mouse at 5 mg/kg, po measured after 3 hrs; assay type: ADME, organism-based; settings: for concentration at 3 h: SCID, plasma
[4] = Oral plasma exposure in SCID mouse at 5 mg/kg, po measured after 6 hrs; assay type: ADME, organism-based; settings: for concentration at 6 h: SCID, plasma
[5] = target: T1, Protein cereblon/Histone acetyltransferase p300; experiment: PROTAC activity at p300/CRBN in human VCaP cells assessed as protein degradation incubated for 4 hrs by Western blot analysis; assay type: cell-based
[6] = target: T2, Protein cereblon/CREB-binding protein (Homo sapiens, UniProt Q92793+Q96SW2); experiment: PROTAC activity at CBP/CRBN in human VCaP cells assessed as protein degradation incubated for 4 hrs by Western blot analysis; assay type: cell-based
Target sequence in this assay (Q92793 whole entry): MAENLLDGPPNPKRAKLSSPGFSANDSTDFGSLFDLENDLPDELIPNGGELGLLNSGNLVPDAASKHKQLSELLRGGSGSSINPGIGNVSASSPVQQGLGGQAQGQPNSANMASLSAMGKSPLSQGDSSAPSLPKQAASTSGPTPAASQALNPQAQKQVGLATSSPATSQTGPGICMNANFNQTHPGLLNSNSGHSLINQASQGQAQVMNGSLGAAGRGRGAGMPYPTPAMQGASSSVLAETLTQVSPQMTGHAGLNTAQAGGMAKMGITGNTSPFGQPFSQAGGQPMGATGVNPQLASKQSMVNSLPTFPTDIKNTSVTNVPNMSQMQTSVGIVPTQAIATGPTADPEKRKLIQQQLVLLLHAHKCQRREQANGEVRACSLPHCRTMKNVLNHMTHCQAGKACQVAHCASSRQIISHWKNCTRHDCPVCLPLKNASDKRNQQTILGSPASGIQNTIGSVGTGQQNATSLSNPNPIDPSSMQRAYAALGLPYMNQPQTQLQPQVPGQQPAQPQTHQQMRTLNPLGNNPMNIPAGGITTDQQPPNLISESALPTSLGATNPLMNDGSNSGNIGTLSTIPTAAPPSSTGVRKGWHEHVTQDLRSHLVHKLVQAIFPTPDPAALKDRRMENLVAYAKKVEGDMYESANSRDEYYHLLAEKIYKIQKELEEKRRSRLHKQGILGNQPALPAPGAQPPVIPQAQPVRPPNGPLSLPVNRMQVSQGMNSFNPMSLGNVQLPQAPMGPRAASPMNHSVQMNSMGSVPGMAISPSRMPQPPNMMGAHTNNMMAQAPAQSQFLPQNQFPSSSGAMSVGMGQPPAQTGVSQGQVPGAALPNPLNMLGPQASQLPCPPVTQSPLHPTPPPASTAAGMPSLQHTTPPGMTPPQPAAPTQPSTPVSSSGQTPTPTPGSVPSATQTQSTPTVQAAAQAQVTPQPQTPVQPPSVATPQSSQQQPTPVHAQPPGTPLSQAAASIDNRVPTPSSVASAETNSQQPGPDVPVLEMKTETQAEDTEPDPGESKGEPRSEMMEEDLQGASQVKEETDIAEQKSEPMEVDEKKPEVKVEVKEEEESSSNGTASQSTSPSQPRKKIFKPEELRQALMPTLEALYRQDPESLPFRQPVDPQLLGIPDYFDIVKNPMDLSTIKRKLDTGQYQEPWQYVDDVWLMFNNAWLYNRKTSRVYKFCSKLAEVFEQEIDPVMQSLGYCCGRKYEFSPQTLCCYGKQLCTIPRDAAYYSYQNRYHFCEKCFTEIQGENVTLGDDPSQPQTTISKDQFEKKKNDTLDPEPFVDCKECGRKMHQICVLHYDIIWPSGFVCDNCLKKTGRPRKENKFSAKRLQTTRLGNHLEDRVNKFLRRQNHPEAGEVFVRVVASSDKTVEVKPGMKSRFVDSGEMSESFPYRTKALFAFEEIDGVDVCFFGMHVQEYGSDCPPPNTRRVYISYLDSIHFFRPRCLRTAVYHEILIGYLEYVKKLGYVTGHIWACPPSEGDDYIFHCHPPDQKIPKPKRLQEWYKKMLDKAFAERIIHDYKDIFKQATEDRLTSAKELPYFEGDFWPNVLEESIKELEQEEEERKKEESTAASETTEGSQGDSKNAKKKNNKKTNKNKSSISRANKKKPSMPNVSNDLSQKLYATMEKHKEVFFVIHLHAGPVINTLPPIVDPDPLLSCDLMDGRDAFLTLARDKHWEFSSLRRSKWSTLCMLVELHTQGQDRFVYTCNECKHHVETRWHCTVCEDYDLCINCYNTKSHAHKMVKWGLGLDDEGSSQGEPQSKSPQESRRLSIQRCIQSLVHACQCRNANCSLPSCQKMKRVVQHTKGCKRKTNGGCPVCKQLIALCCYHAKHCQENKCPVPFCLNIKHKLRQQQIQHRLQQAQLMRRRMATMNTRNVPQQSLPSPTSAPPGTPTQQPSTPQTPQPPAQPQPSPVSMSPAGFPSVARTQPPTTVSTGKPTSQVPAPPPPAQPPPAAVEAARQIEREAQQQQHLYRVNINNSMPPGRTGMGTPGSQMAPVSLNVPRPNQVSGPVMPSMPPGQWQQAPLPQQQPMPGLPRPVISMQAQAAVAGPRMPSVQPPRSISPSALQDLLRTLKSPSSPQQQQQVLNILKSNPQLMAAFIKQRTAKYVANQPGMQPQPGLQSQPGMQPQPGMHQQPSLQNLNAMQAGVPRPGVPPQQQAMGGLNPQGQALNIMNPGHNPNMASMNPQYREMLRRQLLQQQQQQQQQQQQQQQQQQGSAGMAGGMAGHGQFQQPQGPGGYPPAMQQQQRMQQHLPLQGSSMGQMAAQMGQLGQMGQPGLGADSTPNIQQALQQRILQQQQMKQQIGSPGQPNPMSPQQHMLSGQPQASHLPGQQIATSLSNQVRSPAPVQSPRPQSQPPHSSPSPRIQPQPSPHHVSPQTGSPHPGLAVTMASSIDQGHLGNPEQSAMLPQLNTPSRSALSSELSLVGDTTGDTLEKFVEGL
Target sequence in this assay (Q96SW2 whole entry): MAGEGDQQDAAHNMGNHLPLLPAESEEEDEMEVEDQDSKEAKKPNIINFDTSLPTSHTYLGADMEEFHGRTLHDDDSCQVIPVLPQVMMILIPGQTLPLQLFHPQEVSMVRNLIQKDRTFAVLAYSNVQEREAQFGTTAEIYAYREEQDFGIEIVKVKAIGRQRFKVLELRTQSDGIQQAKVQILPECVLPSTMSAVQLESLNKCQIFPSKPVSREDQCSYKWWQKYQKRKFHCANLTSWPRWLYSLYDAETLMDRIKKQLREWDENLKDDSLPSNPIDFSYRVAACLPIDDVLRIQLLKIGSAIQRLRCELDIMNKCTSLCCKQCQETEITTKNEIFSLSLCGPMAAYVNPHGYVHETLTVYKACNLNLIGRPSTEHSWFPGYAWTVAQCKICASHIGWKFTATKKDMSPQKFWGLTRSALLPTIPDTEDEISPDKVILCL

[7] = target: T2, Protein cereblon/CREB-binding protein; experiment: PROTAC activity at CBP/CRBN in human VCaP cells assessed as maximal protein degradation at 1 uM incubated for 4 hrs by Western blot analysis relative to control; assay type: cell-based

Row | Structure (SMILES) | Emax [1] | concentration at 1 h [2] | concentration at 3 h [3] | concentration at 6 h [4] | DC50 [5] | DC50 [6] | Emax [7] | Cp ([2]; in vivo, po, 5 mg/kg, 1 h, BLD = below limit of detection) | Cp ([3]; in vivo, po, 5 mg/kg, 3 h, BLD = below limit of detection) | Cp ([4]; in vivo, po, 5 mg/kg, 6 h, BLD = below limit of detection)
1 | CC(=O)N1CCc2c(c(N3CCCc4cc(-c5cnn(C)c5)c(C(F)F)cc43)nn2C2CCN(C(=O)CCCCCNc3cccc4c3C(=O)N(C3CCC(=O)NC3=O)C4=O)CC2)C1 (centres undefined) | > 95% |  |  |  | 0.2 nM | 0.4 nM | 115% |  |  | 
2 | CC(=O)N1CCc2c(c(N3CCCc4cc(-c5cnn(C)c5)c(C(F)F)cc43)nn2C2CCN(C(=O)CCCCNc3ccc4c(c3)C(=O)N(C3CCC(=O)NC3=O)C4=O)CC2)C1 (centres undefined) | > 95% |  |  |  | 0.4 nM | 0.4 nM | > 95% |  |  | 
3 | CC(=O)N1CCc2c(c(N3CCCc4cc(-c5cnn(C)c5)c(C(F)F)cc43)nn2[C@H]2CC[C@H](CN3CCN(c4ccc5c(c4)CN(C4CCC(=O)NC4=O)C5=O)CC3)CC2)C1 (some centres undefined) | > 95% |  |  |  | < 0.1 nM | 0.1 nM | > 95% |  |  | 
4 | CC(=O)N1CCc2c(c(N3CCCc4cc(-c5cnn(C)c5)c(C(F)F)cc43)nn2C2CCN(C(=O)CCCCNc3cccc4c3C(=O)N(C3CCC(=O)NC3=O)C4=O)CC2)C1 (centres undefined) | > 95% | 5.4 ng/mL | 2.7 ng/mL | 1.6 ng/mL | 0.1 nM | 0.4 nM | > 95% |  |  | 
5 | CC(=O)N1CCc2c(c(N3CCCc4cc(-c5cnn(C)c5)c(C(F)F)cc43)nn2C2CCN(C(=O)CCCNc3cccc4c3C(=O)N(C3CCC(=O)NC3=O)C4=O)CC2)C1 (centres undefined) | 93% |  |  |  | 1.2 nM | 1.4 nM | 92% |  |  | 
6 | CC(=O)N1CCc2c(c(N3CCCc4cc(-c5cnn(C)c5)c(C(F)F)cc43)nn2C2CCN(C(=O)c3cccc4c3C(=O)N(C3CCC(=O)NC3=O)C4=O)CC2)C1 (centres undefined) | < 50% |  |  |  | > 1000 nM | > 1000 nM | < 50% |  |  | 
7 | CC(=O)N1CCc2c(c(N3CCCc4cc(-c5cnn(C)c5)c(C(F)F)cc43)nn2C2CCN(C(=O)CCNc3cccc4c3C(=O)N(C3CCC(=O)NC3=O)C4=O)CC2)C1 (centres undefined) | 81% |  |  |  | 18 nM | 8 nM | 88% |  |  | 
8 | CC(=O)N1CCc2c(c(N3CCCc4cc(-c5cnn(C)c5)c(C(F)F)cc43)nn2C2CCN(C(=O)Nc3cccc4c3C(=O)N(C3CCC(=O)NC3=O)C4=O)CC2)C1 (centres undefined) | < 50% |  |  |  | > 1000 nM | > 1000 nM | < 50% |  |  | 

The remaining lines, values ahead:

Row | Emax [1] | concentration at 1 h [2] | concentration at 3 h [3] | concentration at 6 h [4] | DC50 [5] | DC50 [6] | Emax [7] | Cp ([2]; in vivo, po, 5 mg/kg, 1 h, BLD = below limit of detection) | Cp ([3]; in vivo, po, 5 mg/kg, 3 h, BLD = below limit of detection) | Cp ([4]; in vivo, po, 5 mg/kg, 6 h, BLD = below limit of detection) | Structure (SMILES)
9 | > 95% | 1050 ng/mL | 962 ng/mL | 613 ng/mL | 1.1 nM | 1.3 nM | > 95% |  |  |  | CC(=O)N1CCc2c(c(N3CCCc4cc(-c5cnn(C)c5)c(C(F)F)cc43)nn2C2CCN(C3CN(c4ccc5c(c4)C(=O)N(C4CCC(=O)NC4=O)C5=O)C3)CC2)C1 (centres undefined)
10 | < 50% |  |  |  | > 1000 nM | > 1000 nM | < 50% |  |  |  | CC(=O)N1CCc2c(c(N3CCCc4cc(-c5cnn(C)c5)c(C(F)F)cc43)nn2C2CCN(C(=O)c3ccc4c(c3)C(=O)N(C3CCC(=O)NC3=O)C4=O)CC2)C1 (centres undefined)
11 | > 95% | 122 ng/mL | 122 ng/mL | 82.2 ng/mL | 0.6 nM | 1.1 nM | > 95% |  |  |  | CC(=O)N1CCc2c(c(N3CCCc4cc(-c5cnn(C)c5)c(C(F)F)cc43)nn2C2CCN(C3CCN(c4ccc5c(c4)C(=O)N(C4CCC(=O)NC4=O)C5=O)CC3)CC2)C1 (centres undefined)
12 | > 95% | 493 ng/mL | 312 ng/mL | 328 ng/mL | 0.4 nM | 1.1 nM | > 95% |  |  |  | CC(=O)N1CCc2c(c(N3CCCc4cc(-c5cnn(C)c5)c(C(F)F)cc43)nn2C2CCN(C3CC4(CCN(c5ccc6c(c5)C(=O)N(C5CCC(=O)NC5=O)C6=O)CC4)C3)CC2)C1 (centres undefined)
13 | 33% |  |  |  | > 1000 nM | 700 nM | 53% |  |  |  | CC(=O)N1CCc2c(c(N3CCCc4cc(-c5cnn(C)c5)c(C(F)F)cc43)nn2[C@H]2CC[C@H](CN3CCN(c4cccc5c4C(=O)N(C4CCC(=O)NC4=O)C5=O)CC3)CC2)C1 (some centres undefined)
14 | > 95% | 2.6 ng/mL | 1.4 ng/mL | 1.5 ng/mL | 2 nM | 0.7 nM | > 95% |  |  |  | CC(=O)N1CCc2c(c(N3CCCc4cc(-c5cnn(C)c5)c(C(F)F)cc43)nn2C2CCN(C(=O)CNc3ccc4c(c3)C(=O)N(C3CCC(=O)NC3=O)C4=O)CC2)C1 (centres undefined)
15 | > 95% |  |  |  | < 0.2 nM | < 0.2 nM | > 95% | Bld | Bld | Bld | CC(=O)N1CCc2c(c(N3CCCc4cc(-c5cnn(C)c5)c(C(F)F)cc43)nn2C2CCN(C(=O)Nc3ccc4c(c3)C(=O)N(C3CCC(=O)NC3=O)C4=O)CC2)C1 (centres undefined)
16 | > 95% | 23.8 ng/mL | 16.7 ng/mL | 7.4 ng/mL | 0.4 nM | 1.1 nM | > 95% |  |  |  | CC(=O)N1CCc2c(c(N3CCCc4cc(-c5cnn(C)c5)c(C(F)F)cc43)nn2C2CCN(CC3CN(c4ccc5c(c4)C(=O)N(C4CCC(=O)NC4=O)C5=O)C3)CC2)C1 (centres undefined)
17 | > 95% | 5.1 ng/mL | 3.2 ng/mL | 2 ng/mL | 0.4 nM | 0.9 nM | > 95% |  |  |  | CC(=O)N1CCc2c(c(N3CCCc4cc(-c5cnn(C)c5)c(C(F)F)cc43)nn2C2CCN(C(=O)CCNc3ccc4c(c3)C(=O)N(C3CCC(=O)NC3=O)C4=O)CC2)C1 (centres undefined)
18 | > 95% | 183 ng/mL | 235 ng/mL | 149 ng/mL | 0.4 nM | 0.5 nM | > 95% |  |  |  | CC(=O)N1CCc2c(c(N3CCCc4cc(-c5cnn(C)c5)c(C(F)F)cc43)nn2C2CCN(C3CC4(C3)CN(c3ccc5c(c3)C(=O)N(C3CCC(=O)NC3=O)C5=O)C4)CC2)C1 (centres undefined)

From ChEMBL document CHEMBL5518240 (J Med Chem, 2024)
